Read-outs that look alike come from different tables or passages of the source.
Experiments:
EMT-6 cells [1] = assay: Toxicity to hypoxic EMT-6 cells (surviving fraction); type: cell-based, mouse
Procedure: This represents a cytosidal toxicity about 10× that of MISO under the same conditions.
EXAMPLE 9 TOXICITY STUDIES
EMT-6 mouse fibrosarcoma cells in stirred cultures, as described previously (5), were exposed to various concentrations of the test drugs under hypoxic conditions. Cells were removed at various intervals and the colony-forming ability was assessed by plating the cells in drug-free complete MEM with 10% fetal calf serum. The data were used to construct plots of surviving fraction of EMT-6 cells against time of incubation with test drug at various drug concentrations (FIG. 2) as in Jette (13).

EMT-6 cells [2] = assay: Hypoxic cell radiosensitizing ability (post-irradiation survival); type: cell-based, mouse
Procedure: Cell cultures were examined under oxic (air) and hypoxic incubation, with various concentrations of test drug, and at several doses of radiation.

[3] = Tissue distribution of radioactivity after intravenous injection; type: in vivo, BALB/C mice; conditions: mouse, iv, i.v.; for tissue uptake at 0.5 h: 0.50 h
Source text: Tables 1 and 2 show the percent of injected IAZG and IAZA respectively per gram of wet tissue for selected tissues excised from BALB/C mice bearing EMT-6 tumors. This tumor model is known to have a high hypoxic fraction (0.33) (16). […] Hepatobiliary excretion may play a role in blood clearance as evidenced by elevated liver radioactivity and the appearance of activity in the intestine. Some oxidative or reductive metabolites of the 2-nitroimidazoles may also become bound to liver tissue, as was postulated in an in vivo study with ^14 C-MISO (6). This supposition is supported by the persistence of liver radioactivity at longer time periods. […] At 8 and 24 hours thyroid levels of IAZG are 7.2 and 30.9% of the total body activity and for IAZA they are 7.9 and 33.8% of total body activity. EXAMPLE 11 TISSUE DISTRIBUTION AND EXCRETION Tumor propagation of EMT-6 tumors in BALB/C mice was accomplished by subcutaneous injection of a cell suspension (10^5 cells in 0.1 mL) as described previously (10). Tumors reached about 10 mm in diameter (≈0.5 g) at 12 to 14 days, at which time each animal was given a bolus intravenous injection of ^125 I-labelled test drug via the tail vein (40 to 60 kBq in 0.1 mL). At set time periods the animals were asphyxiated with CO2 and exsanguinated via cardiac puncture. Tissues were dissected, weighed wet into vials and counted for ^125 I-activity. Whole-body activity was determined by summation of total activity in tissues and in residual carcass, and blood activity was determined from the blood aliquot, assuming blood to be 6.5% of the total body weight. EXAMPLE 12 Male BALB/c mice (20-25 g) were inoculated subcutaneously in the left flank with a suspension of murine EMT-6 cells (10^5 cells in 0.1 mL) (14). After 12 to 14 days, when the tumors reached the desired size (8-10 mm diameter), each mouse received a single intravenous (iv) injection of ^125 I-IAZA (59 kBq in 0.1 mL). […] Heart, lung, liver, spleen, muscle, bone, thyroid, kidney, stomach, small intestine, tail, tumor and skin were removed upon necropsy, weighed and analyzed for ^125 I using a Beckman Model 8000 gamma scintillation counter. The remaining carcass mass was also weighed and radioassayed.

[4] = Long term storage in solution; type: physicochemical
Source text: Both IAZA and IAZG are synthesised, in high yield, from commercial precursors (FIG. 1) and undergo high-yield isotope exchange reactions with radioiodine to produce the required radiolabelled test compounds. […] Therefore, the compounds were stored as a dry residue in multidose vials under refrigeration and were reconstituted with the appropriate solvent just prior to use. IAZP is similarly synthesised. It will be known to those skilled in the art that other radio halogens may be similarly employed in the exchange reaction.

[5] = blood, read-out: Percent of Injected Dose per Gram, Blood
[6] = intestine, read-out: Percent of Injected Dose per Gram, Intestine
[7] = kidney, read-out: Percent of Injected Dose per Gram, Kidney
[8] = liver, read-out: Percent of Injected Dose per Gram, Liver
[9] = lung, read-out: Percent of Injected Dose per Gram, Lung
[10] = muscle, read-out: Percent of Injected Dose per Gram, Muscle
[11] = stomach, read-out: Percent of Injected Dose per Gram, Stomach
[12] = tumor, read-out: Percent of Injected Dose per Gram, Tumor

## O=[N+]([O-])c1nccn1[C@@H]1O[C@H](CI)[C@H](O)[C@H](O)[C@H]1O [IAZG, 1-(6-iodo-6-deoxy-β-D-galactopyranosyl)-2-nitroimidazole]
EMT-6 cells [1]; 1.0 mM, hypoxic, 37° C.
  time required to reduce the cell population by 90%: about 1.75 h
EMT-6 cells [1]; 1.0 mM, hypoxic, same conditions
  cytosidal toxicity relative to MISO: about 10 ×
EMT-6 cells [1]; in words
  selective toxicity to hypoxic EMT-6 tumor cells: selective toxicity to hypoxic EMT-6 tumor cells
EMT-6 cells [1]; oxic
  toxicity under oxic conditions: absence of toxicity under oxic conditions
EMT-6 cells [2]; 50 μM, 90% cell kill, hypoxic
  sensitizer enhancement ratio (SER): about 1.8
EMT-6 cells [2]; in words
  sensitisation to lethal effects of ionising radiation: sensitise these cells to the lethal effects of ionising radiation
EMT-6 cells [2]; vs azomycin nucleoside class
  in vitro radiosensitizer efficiency, comparison: most efficient in vitro radiosensitizer of the azomycin nucleoside class produced to date
[3]; [5]
  tissue uptake at 0.25 h: 1.83 ± 0.17 %ID/g
  tissue uptake at 0.5 h: 1.11 ± 0.16 %ID/g
  tissue uptake at 1 h: 0.86 ± 0.26 %ID/g
  tissue uptake at 2 h: 0.53 ± 0.1 %ID/g
  tissue uptake at 4 h: 0.28 ± 0.07 %ID/g
  tissue uptake at 8 h: 0.16 ± 0.03 %ID/g
  tissue uptake at 24 h: 0.06 ± 0.02 %ID/g
[3]; [6]
  tissue uptake at 0.25 h: 6.82 ± 5.2 %ID/g
  tissue uptake at 0.5 h: 3.65 ± 1.36 %ID/g
  tissue uptake at 1 h: 1.16 ± 0.25 %ID/g
  tissue uptake at 2 h: 0.82 ± 0.45 %ID/g
  tissue uptake at 4 h: 0.29 ± 0.07 %ID/g
  tissue uptake at 8 h: 0.17 ± 0.08 %ID/g
  tissue uptake at 24 h: 0.05 ± 0.02 %ID/g
[3]; [7]
  tissue uptake at 0.25 h: 15.6 ± 1.15 %ID/g
  tissue uptake at 0.5 h: 8.94 ± 1.2 %ID/g
  tissue uptake at 1 h: 4.56 ± 1.41 %ID/g
  tissue uptake at 2 h: 2.67 ± 0.51 %ID/g
  tissue uptake at 4 h: 1.1 ± 0.29 %ID/g
  tissue uptake at 8 h: 0.4 ± 0.02 %ID/g
  tissue uptake at 24 h: 0.09 ± 0.03 %ID/g
[3]; [8]
  tissue uptake at 0.25 h: 5.5 ± 0.79 %ID/g
  tissue uptake at 0.5 h: 2.96 ± 0.49 %ID/g
  tissue uptake at 1 h: 1.48 ± 0.24 %ID/g
  tissue uptake at 2 h: 1.4 ± 0.56 %ID/g
  tissue uptake at 4 h: 0.43 ± 0.12 %ID/g
  tissue uptake at 8 h: 0.2 ± 0.02 %ID/g
  tissue uptake at 24 h: 0.08 ± 0.02 %ID/g
[3]; [9]
  tissue uptake at 0.25 h: 2.77 ± 0.44 %ID/g
  tissue uptake at 0.5 h: 1.46 ± 0.24 %ID/g
  tissue uptake at 1 h: 0.74 ± 0.12 %ID/g
  tissue uptake at 2 h: 0.61 ± 0.17 %ID/g
  tissue uptake at 4 h: 0.33 ± 0.09 %ID/g
  tissue uptake at 8 h: 0.16 ± 0.02 %ID/g
  tissue uptake at 24 h: 0.07 ± 0.01 %ID/g
[3]; [10]
  tissue uptake at 0.25 h: 1.31 ± 0.21 %ID/g
  tissue uptake at 0.5 h: 0.7 ± 0.18 %ID/g
  tissue uptake at 1 h: 0.37 ± 0.19 %ID/g
  tissue uptake at 2 h: 0.34 ± 0.2 %ID/g
  tissue uptake at 4 h: 0.14 ± 0.03 %ID/g
  tissue uptake at 8 h: 0.06 ± 0.02 %ID/g
  tissue uptake at 24 h: 0.02 ± 0.01 %ID/g
[3]; [11]
  tissue uptake at 0.25 h: 3.29 ± 1.07 %ID/g
  tissue uptake at 0.5 h: 2.14 ± 1.01 %ID/g
  tissue uptake at 1 h: 1.38 ± 0.42 %ID/g
  tissue uptake at 2 h: 1.49 ± 1.12 %ID/g
  tissue uptake at 4 h: 0.55 ± 0.3 %ID/g
  tissue uptake at 8 h: 0.42 ± 0.35 %ID/g
  tissue uptake at 24 h: 0.06 ± 0.04 %ID/g
[3]; [12]
  tissue uptake at 0.25 h: 1.75 ± 0.46 %ID/g
  tissue uptake at 0.5 h: 1.45 ± 0.24 %ID/g
  tissue uptake at 1 h: 1.21 ± 0.21 %ID/g
  tissue uptake at 2 h: 0.77 ± 0.17 %ID/g
  tissue uptake at 4 h: 0.43 ± 0.09 %ID/g
  tissue uptake at 8 h: 0.23 ± 0.09 %ID/g
  tissue uptake at 24 h: 0.08 ± 0.01 %ID/g
[4]
  stability on long term storage in solution: some decomposition of the pure compounds
